Data: patent publication US11963941B2, “Use of a fasting mimicking diet to enhance the efficacy of antiestrogens in cancer” (UNIVERSITA' DEGLI STUDI DI GENOVA, priority 2016, dated 2024)
“Also recorded” adds a separate entry of the source.

Experiments:
MCF7 cells [1] = assay: Short-term viability assay (72 h, sulforhodamine B) with chemotherapeutics; type: cell-based; details: FIG. 7
Procedure: In the experiment of FIG. 7, 5×10^3 MCF7 cells/well were plated in 96-well plates in regular DMEM medium containing 10% FBS. 24 h later, the cell medium was removed and cells were incubated for 24 h either in the same medium or in low-glucose (0.5 g/L) DMEM medium containing 1% FBS (fasting mimicking conditions). 24 h later, 10 μM tamoxifen (Tam) was added to the culture medium where indicated. 24 h later, cells were stimulated with doxorubicin or Taxotere at the indicated concentrations. Viability was determined 72 h later in sulforhodamine B assays.

[2] = literature refs [5], [6]; cited from earlier work
MCF7 cells [3] = assay: Cell viability in control vs fasting mimicking (FMD) medium; type: cell-based; details: FMD = low-glucose (0.5 g/L) DMEM, 1% FBS, vs regular medium, FIG. 1A, 1D
Procedure: In particular, in the experiments of FIGS. 1A-D, 3×10^3 MCF7 (A, D), ZR-75-1 (B) or T47D (C) cells were plated in 96 well plates in regular DMEM medium containing 10% FBS. 24 h later, the cell medium was removed and cells were incubated for 24 h either in the same medium (CTR) or in low-glucose (0.5 g/L) DMEM medium containing 1% FBS (FMD). 24 h later, tamoxifen (Tam) or fulvestrant (Fulv) at the indicated concentrations were added to the culture medium.

MCF7 cells [4] = assay: Cell cycle analysis (G1 arrest); type: cell-based; details: 10 μM tamoxifen, 24 h, FIG. 2A
Procedure: (§1) In particular, in the experiments of FIGS. 2A-D, 5×10^5 MCF7, ZR-75-1 or T47D cells were plated in 6-well plates in regular DMEM medium containing 10% FBS. 24 h later, the cell medium was removed and cells were incubated for 24 h either in the same medium (CTR) or in fasting mimicking conditions or a fasting mimicking diet (FMD). 24 h later, 10 μM tamoxifen (Tam) was added to the culture medium where indicated. 24 h later, cells were used for cell cycle analysis or for mRNA extraction and subsequent determination of E2F1, E2F4 and CCNE1 expression by QPCR.

T47D cells [5] = assay: Cell cycle analysis (G1 arrest); type: cell-based; details: 10 μM tamoxifen, 24 h, FIG. 2C
Procedure: as §1

MCF7 cells [6] = type: cell-based; details: FMD + tamoxifen 5 μM, 24 h
MCF7 cells [7] = assay: Gene expression by QPCR; type: cell-based
Procedure: as §1
In the experiment of FIG. 4, MCF7, ZR-75-1 or T47D cells were treated as in the experiment of FIG. 2. 24 h after tamoxifen (5 μM) addition, cells were used for protein lysate generation or for mRNA extraction, ER and β-actin were detected by immunoblotting. TTF1 expression was determined by QPCR.
In the experiment of FIG. 6, MCF7, ZR-75-1 or T47D cells were treated as in the experiment of FIG. 2. 24 h after tamoxifen (5 μM) addition, cells were used for RNA extraction or for protein lysate generation. In FIG. 6A, RAD51 expression was detected by QPCR. In FIG. 6B, RAD51 and (β-actin were detected by immunoblotting.

T47D cells [8] = tested on: T47D cells
MCF7 cells [9] = assay: Global gene expression microarrays; type: cell-based
T47D cells [10] = assay: Gene expression by QPCR; type: cell-based
T47D cells [11] = assay: Cell viability in control vs fasting mimicking (FMD) medium; type: cell-based; details: FMD = low-glucose (0.5 g/L) DMEM, 1% FBS, vs regular medium, FIG. 1C
[12] = type: in vivo; details: fasting (water only, 48 h) + tamoxifen 30 mg/kg/die; FIG. 8C
MCF7 xenografts = assay: MCF7 xenograft tumor growth
[13] = FMD + tamoxifen 5 μM, 24 h, FIG. 4B
[14] = FMD + tamoxifen 5 μM, 24 h, FIG. 6A
[15] = FMD + tamoxifen 10 μM vs single treatments, FIG. 2D
[16] = FMD + tamoxifen 5 μM, 24 h, FIG. 3
[17] = MCF7 treated with tamoxifen and FMD, 4 biological replicates/condition

CC(=O)O[C@@]12CO[C@@H]1C[C@H](O)[C@@]1(C)C(=O)[C@H](O)C3=C(C)[C@@H](OC(=O)[C@H](O)[C@@H](NC(=O)OC(C)(C)C)c4ccccc4)C[C@@](O)([C@@H](OC(=O)c4ccccc4)[C@H]21)C3(C)C [Taxotere, docetaxel]
cell viability, triple treatment tamoxifen + Taxotere + FMD (MCF7 cells [1]; taxotere 100 nM): most pronounced reduction in cell viability

COc1cccc2c1C(=O)c1c(O)c3c(c(O)c1C2=O)C[C@@](O)(C(=O)CO)C[C@@H]3O[C@H]1C[C@H](N)[C@H](O)[C@H](C)O1 [doxorubicin]
cell viability, triple treatment tamoxifen + doxorubicin + FMD (MCF7 cells [1]; doxorubicin 100 nM): most pronounced reduction in cell viability

CO[C@H]1C[C@@H]2CC[C@@H](C)[C@@](O)(O2)C(=O)C(=O)N2CCCC[C@H]2C(=O)O[C@H]([C@H](C)C[C@@H]2CC[C@@H](OCCO)[C@H](OC)C2)CC(=O)[C@H](C)/C=C(\C)[C@@H](O)[C@@H](OC)C(=O)[C@H](C)C[C@H](C)/C=C/C=C/C=C/1C [everolimus]
significant side effects [2]: stomatitis, anemia and hyperglycemia

C[C@]12CC[C@@H]3c4ccc(O)cc4C[C@@H](CCCCCCCCC[S+]([O-])CCCC(F)(F)C(F)(F)F)[C@H]3[C@@H]1CC[C@@H]2O (some centres unmarked) [fulvestrant]
cell viability: potentiation of drug activity by FMD conditions (MCF7 cells [3]): marked increase
induction of a G1 cell cycle arrest, drug + FMD (MCF7 cells [4]): increased the ability
induction of a G1 cell cycle arrest, drug + FMD (T47D cells [5]): increased the ability

CC/C(=C(\c1ccccc1)c1ccc(OCCN(C)C)cc1)c1ccccc1 [tamoxifen]
cell viability: potentiation of drug activity by FMD conditions (MCF7 cells [3]): strong potentiation
4E-BP1 phosphorylation state (MCF7 cells [6]; FIG. 3): marked accumulation of the unphosphorylated form
mTOR activity (levels of phosphorylated p70S6K and eIF4E) (MCF7 cells [6]; FIG. 3): marked inhibition of mTOR activity
RAD51 expression at the protein level (MCF7 cells [6]; FIG. 6B): strong RAD51 downregulation
TTF1 expression (ERα-mediated transcription) (MCF7 cells [7]; [13]): increase the ability of tamoxifen to reduce TTF1 expression
RAD51 expression at the mRNA level (MCF7 cells [7]; [14]): strong RAD51 downregulation
downregulation of cell cycle promoting genes (E2F1, E2F2 and CCNE1) (MCF7 cells [7]; [15]): more pronounced
induction of a G1 cell cycle arrest, drug + FMD (MCF7 cells [4]): increased the ability
induction of a G1 cell cycle arrest, drug + FMD (T47D cells [5]): increased the ability; also recorded: only occurred in response to a combined treatment
4E-BP1 phosphorylation state (T47D cells [8]; [16]): marked accumulation of the unphosphorylated form
mTOR activity (levels of phosphorylated p70S6K and eIF4E) (T47D cells [8]; [16]): marked inhibition of mTOR activity
RAD51 expression at the protein level (T47D cells [8]; FMD + tamoxifen 5 μM, 24 h, FIG. 6B): strong RAD51 downregulation
HER2 expression (T47D cells [8]; FMD in combination with tamoxifen 5 μM, FIG. 3): marked reduction in HER2 expression
gene ontology/pathway analysis of differentially expressed genes (MCF7 cells [9]; MCF7, FMD added to tamoxifen vs FMD alone or tamoxifen alone, FIG. 5): marked changes in pathways related to DNA repair
BRCA1 Log2 fold change (MCF7 cells [9]; [17]): −1.372
EXO1 Log2 fold change (MCF7 cells [9]; [17]): −1.583
PCNA Log2 fold change (MCF7 cells [9]; [17]): −1.658
RAD51 Log2 fold change (MCF7 cells [9]; [17]): −1.864
TIPIN Log2 fold change (MCF7 cells [9]; [17]): −1.604
TTF1 expression (ERα-mediated transcription) (T47D cells [10]; [13]): increase the ability of tamoxifen to reduce TTF1 expression
RAD51 expression at the mRNA level (T47D cells [10]; [14]): strong RAD51 downregulation
downregulation of cell cycle promoting genes (E2F1, E2F2 and CCNE1) (T47D cells [10]; [15]): more pronounced; also recorded: only occurred in response to a combined treatment
cell viability: potentiation of drug activity by FMD conditions (T47D cells [11]): strong potentiation
mouse body weight loss, addition of drug to fasting [12]: failed to worsen weight losses
growth of MCF7 xenografts (tumor volume), drug alone (MCF7 xenografts; normal diet, tamoxifen 30 mg/kg/die oral gavage, FIG. 8A): reduced the growth
growth of MCF7 xenografts (tumor volume), drug + fasting (MCF7 xenografts; tamoxifen 30 mg/kg/die oral gavage + fasting (water only, 48 h, once a week), p<0.05): significantly more effective than either type of treatment alone
